Reference: ChEMBL document CHEMBL6182924, “Discovery of a Novel and Potent MET Transcription Inhibitor Targeting Promoter G-Quadruplex for the Treatment of NSCLC” (J Med Chem, 2025)
pIC50, pKd: −log10 of the molar value. Activity calls are given as the source filed them. No cut-off for these calls is given here.

Legend:
[1] = tested on: NCI-H1975; assay: Downregulation of c-Met mRNA expression in human NCI-H1975 cells at 0.5 to 1 uM incubated for 24 hrs by qRT-PCR analysis; assay type: functional, cell-based; details: dose 0.5-1 µM
[2] = tested on: NCI-H1975; assay: Induction of apoptosis in human NCI-H1975 cells assessed as late apoptotic cells at 2 uM incubated for 24 hrs by Annexin V-FITC/PI staining based flow cytometry analysis (reference value: 2.27 %); assay type: functional
[3] = tested on: A549; assay: Downregulation of c-Met expression in human A549 cells incubated for 72 hrs by Western blot analysis; assay type: functional, cell-based; details: dose <= 1000.0 nM
[4] = target: Quadruplex DNA; assay: Binding affinity to c-MET G4-quadruplex DNA (unknown origin) assessed as dissociation constant by MST assay; assay type: nucleic-acid assay
[5] = tested on: A549; assay: Inhibition of cell migration in human A549 cells incubated for 12 hrs by crystal violet staining based analysis; assay type: functional; details: dose 0.5-2 µM
[6] = Toxicity in BALB/c mouse xenografted with human A549 cells assessed as kidney damage at 20 mg/kg, po administered once a day and measured after 20 days by H and E staining based analysis; assay type: organism-based; details: in vivo, 480 h, time 20 day
[7] = tested on: NCI-H1975; assay: Induction of apoptosis in human NCI-H1975 cells assessed as late apoptotic cells at 1 uM incubated for 24 hrs by Annexin V-FITC/PI staining based flow cytometry analysis (reference value: 2.27 %); assay type: functional
[8] = tested on: NCI-H1975; assay: Induction of cell cycle arrest in human NCI-H1975 cells assessed as accumulation of cells at G1 phase at 0.5 uM measured for 24 hrs by PI/Rnase staining based flow cytometry (reference value: 79.2 %); assay type: functional
[9] = tested on: NCI-H1975; assay: Inhibition of colony formation in human NCI-H1975 cells incubated for 2 weeks by crystal violet staining based analysis; assay type: functional, cell-based; details: dose 0.5-2 µM
[10] = tested on: NCI-H1975; assay: Induction of cell cycle arrest in human NCI-H1975 cells assessed as accumulation of cells at G2 phase at 1 uM measured for 24 hrs by PI/Rnase staining based flow cytometry (reference value: 14.8 %); assay type: functional
[11] = Toxicity in BALB/c mouse xenografted with human A549 cells assessed as spleen damage at 20 mg/kg, po administered once a day and measured after 40 days by H and E staining based analysis; assay type: organism-based; details: in vivo, 960 h, time 40 day
[12] = tested on: A549; assay: Induction of apoptosis in human A549 cells assessed as late apoptotic cells at 2 uM incubated for 24 hrs by Annexin V-FITC/PI staining based flow cytometry analysis (reference value: 2.56 %); assay type: functional
[13] = tested on: A549; assay: Downregulation of c-Met mRNA expression in human A549 cells at 0.5 to 1 uM incubated for 24 hrs by qRT-PCR analysis; assay type: functional, cell-based; details: dose 0.5-1 µM
[14] = tested on: NCI-H1975; assay: Induction of apoptosis in human NCI-H1975 cells assessed as viable cells at 0.5 uM incubated for 24 hrs by Annexin V-FITC/PI staining based flow cytometry analysis (reference value: 90.1 %); assay type: functional; details: read-out: Activity
[15] = tested on: A549; assay: Induction of apoptosis in human A549 cells assessed as early apoptotic cells at 0.5 uM incubated for 24 hrs by Annexin V-FITC/PI staining based flow cytometry analysis (reference value: 1.73 %); assay type: functional
[16] = tested on: A549; assay: Inhibition of cell invasion in human A549 cells incubated for 12 hrs; assay type: functional, cell-based; details: dose 0.5-2 µM
[17] = tested on: A549; assay: Induction of cell cycle arrest in human A549 cells assessed as accumulation of cells at G1 phase at 1 uM measured for 24 hrs by PI/Rnase staining based flow cytometry (reference value: 75.2 %); assay type: functional
[18] = tested on: A549; assay: Antiproliferative activity against human A549 cells incubated for 3 days by CCK-8 assay; assay type: functional, cell-based; details: A549, 72 h
[19] = tested on: Quadruplex DNA; assay: Binding affinity to c-MET G4-quadruplex DNA (unknown origin) assessed as change in melting temperature
[20] = tested on: NCI-H1975; assay: Induction of apoptosis in human NCI-H1975 cells assessed as necrotic cells at 0.5 uM incubated for 24 hrs by Annexin V-FITC/PI staining based flow cytometry analysis (reference value: 7.33 %); assay type: functional
[21] = Acute toxicity in Sprague-Dawley rat assessed as lung damage at 500 to 2000 mg/kg, po measured every 2 days by H and E staining based analysis; assay type: organism-based; details: in vivo, 48 h, dose 500-2000 mg/kg, time 2 day
[22] = tested on: A549; assay: Induction of apoptosis in human A549 cells assessed as viable cells at 2 uM incubated for 24 hrs by Annexin V-FITC/PI staining based flow cytometry analysis (reference value: 91.3%); assay type: functional; details: read-out: Activity
[23] = tested on: A549; assay: Induction of cell cycle arrest in human A549 cells assessed as accumulation of cells at G1 phase at 2 uM measured for 24 hrs by PI/Rnase staining based flow cytometry (reference value: 75.2 %); assay type: functional
[24] = tested on: NCI-H1975; assay: Downregulation of c-Met expression in human NCI-H1975 cells incubated for 72 hrs by Western blot analysis; assay type: functional, cell-based; details: dose <= 1000.0 nM
[25] = tested on: BaF3; assay: Antiproliferative activity against mouse BaF3 cells harboring TPR-MET […] mutant incubated for 24 hrs by CCK-8 assay; assay type: functional, cell-based; details: BaF3, 24 h
[26] = tested on: A549; assay: Induction of apoptosis in human A549 cells assessed as necrotic cells at 2 uM incubated for 24 hrs by Annexin V-FITC/PI staining based flow cytometry analysis (reference value: 4.37 %); assay type: functional
[27] = tested on: NCI-H1975; assay: Inhibition of cell invasion in human NCI-H1975 cells incubated for 12 hrs; assay type: functional, cell-based; details: dose 0.5-2 µM
[28] = tested on: A549; assay: Antitumor activity against human A549 cells xenografted in BALB/c mouse assessed as tumor growth inhibition at 20 mg/kg, ip administered once a day and measured up to 24 days; assay type: functional; details: A549, 576 h, time <= 24 day, read-out: TGI
[29] = Toxicity in BALB/c mouse xenografted with human A549 cells assessed as lung damage at 40 mg/kg, po administered once a day and measured after 20 days by H and E staining based analysis; assay type: organism-based; details: in vivo, 480 h, time 20 day
[30] = tested on: NCI-H1975; assay: Antiproliferative activity against human NCI-H1975 cells incubated for 3 days by CCK-8 assay; assay type: functional, cell-based; details: NCI-H1975, 72 h
[31] = tested on: A549; assay: Antitumor activity against human A549 cells xenografted in BALB/c mouse assessed as tumor growth inhibition at 40 mg/kg, po administered once a day and measured up to 24 days; assay type: functional; details: A549, 576 h, time <= 24 day, read-out: TGI
[32] = Toxicity in BALB/c mouse xenografted with human A549 cells assessed as body weight loss at 20 mg/kg, po administered once a day and measured after 20 days; assay type: organism-based; details: in vivo, 480 h, time 20 day
[33] = Acute toxicity in Sprague-Dawley rat assessed as liver damage at 500 to 2000 mg/kg, po measured every 2 days by H and E staining based analysis; assay type: organism-based; details: in vivo, 48 h, dose 500-2000 mg/kg, time 2 day
[34] = tested on: NCI-H1975; assay: Induction of cell cycle arrest in human NCI-H1975 cells assessed as accumulation of cells at G1 phase at 1 uM measured for 24 hrs by PI/Rnase staining based flow cytometry (reference value: 79.2 %); assay type: functional
[35] = Toxicity in BALB/c mouse xenografted with human A549 cells assessed as lung damage at 20 mg/kg, po administered once a day and measured after 20 days by H and E staining based analysis; assay type: organism-based; details: in vivo, 480 h, time 20 day
[36] = tested on: A549; assay: Antitumor activity against human A549 cells xenografted in BALB/c mouse assessed as downregulation of AKT expression in tumor at 20 mg/kg, po administered once a day and measured for 20 days by Western blot analysis; assay type: functional, organism-based; details: time 20.0 day

For `COc1cccc(-c2ccc(-c3nc4c5cccnc5c5ncccc5c4[nH]3)o2)c1`, the Activity [1] was “Active”, the Activity [2] was 14.2% and the Activity [3] was “Dose-dependent-effect”. The pKd [4] was 7.13, the inhibition [5] was “Dose-dependent-effect” and the Activity [6] was “Non-toxic”. The Activity [7] was 10.1%, the Activity [8] was 80.5% and the inhibition [9] was “Dose-dependent-effect”. For the same compound, the Activity [10] was 11.5%, the Activity [11] was “Non-toxic” and the Activity [12] was 23.5%. For the same compound, the Activity [13] was “Active”, the viability at 0.5 µM [14] was 85.1% and the Activity [15] was 5.09%. For the same compound, the inhibition [16] was “Dose-dependent-effect”, the Activity [17] was 77.2% and the pIC50 [18] was 6.37. For the same compound, the ΔTm [19] was 10.8 °C, the Activity [20] was 4.81% and the Activity [21] was “Non-toxic”. For the same compound, the viability at 2 µM [22] was 57.4%, the Activity [23] was 83.9% and the Activity [24] was “Dose-dependent-effect”. The pIC50 [25] was 6.21, the Activity [26] was 6.99% and the inhibition [27] was “Dose-dependent-effect”. The inhibition in vivo at 20 mg/kg [28] was 55.6%, the Activity [29] was “Non-toxic” and the pIC50 [30] was 5.77. For the same compound, the inhibition in vivo at 40 mg/kg [31] was 62.4%, the Activity [32] was “Non-toxic” and the Activity [33] was “Non-toxic”. For the same compound, the Activity [34] was 82.1%, the Activity [35] was “Non-toxic” and the Activity [36] was “Active”.
